Series [1] relates to skin tissue. Kind of series: Topical anesthesia / analgesia after application to skin. In kind it is in vivo. Particulars: 1% (w/v) menthol, preliminary work.
Text: The alcohol-based topical anesthesia chemical composition 10 also has a skin analgesic, menthol 1% (w/v).
Series [2] in a line: Solution stability (precipitation of benzocaine). In kind it is physicochemical. Particulars: liquid embodiment, isopropyl alcohol 70-75% (v). From the text: In a non-limiting exemplary embodiment, the alcohol-based topical anesthesia chemical composition 10 may be stored in a tightly sealed container at 25 C or a temperature range of 20 C to 40 C. Temperatures below 15 C may cause the benzocaine to precipitate.
However, beyond 16% (w/v) of benzocaine, the solution stability becomes an issue due to the precipitation of benzocaine; and menthol can be effectively utilized in the range 1% to 3% (w/v).

Series [3] concerns skin tissue. Particulars: topical; cited from earlier work.

As for `CC1CCC(C(C)C)C(O)C1` (stereo not drawn) [menthol], in series [1], the counterirritant analgesic property result is recorded as “safe yet effective”.

For the compound `CCOC(=O)c1ccc(N)cc1` [benzocaine], the “benzocaine concentration beyond which solution stability becomes an issue due to precipitation of benzocaine” value in series [2] is recorded as > 16 % (w/v).

Consider `C[C@]12CCC(=O)C=C1CC[C@@H]1[C@@H]2[C@@H](O)C[C@@]2(C)[C@H]1CC[C@]2(O)C(=O)CO` [Hydrocortisone], for which the “analgesia (alternatives to menthol)” value in series [3] is “does not provide immediate analgesia”.
